Experimental data: patent US12528812B2 (Genentech, Inc., priority 2020, dated 2026)
Read-outs that look alike come from different tables or passages of the source.

Experiments:
[1] = biological target: T1, recombinant human JAK1 kinase domain protein (Residues 854-1154) (Homo sapiens, UniProt P23458); test: JAK1 biochemical assay (LabChip mobility shift, Ki); details: read-out: Biochem JAK1 Ki
T1 construct: human JAK1 kinase domain protein (Residues 854-1154); purchased Proteros Biostructures GmbH (Martinsried, Germany); host or cells: insect cells
T1 sequence (P23458 854-1154): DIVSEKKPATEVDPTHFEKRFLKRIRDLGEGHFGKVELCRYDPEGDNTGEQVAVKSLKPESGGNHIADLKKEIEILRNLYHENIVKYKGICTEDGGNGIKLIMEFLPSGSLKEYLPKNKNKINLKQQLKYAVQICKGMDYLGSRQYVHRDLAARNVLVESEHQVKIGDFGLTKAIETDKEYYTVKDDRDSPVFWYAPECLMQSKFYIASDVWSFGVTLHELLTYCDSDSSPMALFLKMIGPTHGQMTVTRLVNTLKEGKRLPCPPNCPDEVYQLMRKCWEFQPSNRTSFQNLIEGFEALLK

[2] = system: IL-13-stimulated STAT6 phosphorylation in human lung bronchial epithelial BEAS-2B cell line; test: P-STAT6 BEAS-2B + IL-13 cell assay; format: cell-based; details: BEAS2B cells, IL13 stimulation, read-out: Cellular JAK1 PSTAT6 BEAS2B + IL13
Method: In order to study the effect of JAK1 inhibitors in a cell line that is relevant to the cell biology of human asthma, an IL-13-stimulated STAT6 phosphorylation assay in the human lung bronchial epithelial BEAS-2B cell line was developed.
BEAS-2B cells (ATCC′ CRL-9609™) were grown in Bronchial Epithelial Growth Medium (BEGM) (Lonza Catalog No. CC-3170; Walkersville, MD; or PromoCell Catalog No. C-21060; Heidelberg, Germany). Test compound stock solutions (0.5 mM in DMSO) were serially diluted 1:2 in DMSO to generate a 10-point concentration curve (at 500× test concentration), which was further diluted by a 50-fold dilution step in BEGM to generate a 10× concentration curve (in 2% DMSO). Cells were plated at 100,000 cells/well in 200 μL of BEGM in 96-well plates and incubated for 48 hours at 37° C. in a humidified incubator. Medium was aspirated from the cells and replaced with 70 μL of fresh BEGM. Diluted test compound (10 μL; or 2% DMSO in assay medium) was added to the cells, and the plates were incubated for 1 hour at 37° C. in a humidified incubator. Twenty μL of 250 ng/mL human recombinant IL-13 (Bio Techne Catalog No. 213-ILB) was then added to the cells and incubated for 15 minutes at 37° C. Medium was aspirated from the cells and 60 μL of ice-cold 1× cell lysis buffer (Cell Signaling Technologies; Catalog No. 9803S) containing 1 mM PMSF was added to the cells. Assay plates were incubated at −80° C. for at least 1 hour. P-STAT6 was measured by coating GAR plates (MSD; Catalog No. L45RA-1) with rabbit anti-human total STAT6 antibody (Cell Signaling Technologies; Catalog No. 9362S), incubating the cell lysates in the coated plates overnight at 4° C., and then detecting with mouse anti-phospho-STAT6 (Tyr641) Clone 16E12 antibody (Millipore; Catalog No. 05-590, custom labeled by MSD with SULFO-tag) using standard MSD plate processing, washing, and detection protocols. Plates were read on the MESO SECTOR 5600.
Data analysis was performed by subtracting negative control values from all wells and determining percent of control using the positive control values; the IC50 was determined with a four-parameter logistic fit model as shown in Equation 4.

[3] = biological target: Recombinant human JAK2 kinase domain protein (Residues 812-1132) (Homo sapiens, UniProt O60674); test: JAK2 biochemical assay (LabChip mobility shift, Ki)
Sequence of Recombinant human JAK2 kinase domain protein (Residues 812-1132) (O60674 812-1132): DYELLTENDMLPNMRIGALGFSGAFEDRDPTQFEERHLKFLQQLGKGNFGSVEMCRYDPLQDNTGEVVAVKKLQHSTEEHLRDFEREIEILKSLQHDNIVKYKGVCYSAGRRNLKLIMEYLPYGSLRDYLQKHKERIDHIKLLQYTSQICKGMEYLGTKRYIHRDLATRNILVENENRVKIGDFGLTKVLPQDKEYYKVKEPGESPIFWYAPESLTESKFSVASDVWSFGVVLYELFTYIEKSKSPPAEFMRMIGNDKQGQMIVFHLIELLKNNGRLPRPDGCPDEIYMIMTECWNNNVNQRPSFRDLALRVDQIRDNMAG
Method: The in vitro biochemical assays quantify JAK-catalyzed phosphorylation of a synthetic peptide, as detected using a LabChip® EZ Reader II microfluidic mobility shift instrument (PerkinElmer; Waltham, MA). […] Y-1B is fluorescently labeled on the N-terminus with 5-FAM (5-carboxyfluorescein) and contains a single tyrosine residue (Y) that can be phosphorylated by JAK activity. The substrate peptide stock is prepared in DMSO at 5 mM. […] In each titration experiment, test compound was tested in duplicate at each of the twelve concentrations. Blank reactions contained ATP, peptide, and DMSO, but no JAK or test compound, whereas uninhibited control reactions contained ATP, peptide, JAK, and DMSO, but no test compound.
Peptide plus ATP mixture (24 μL) was added to 1 μL of test compound in DMSO (or DMSO alone). The reactions were initiated by adding 25 μL of JAK enzyme to the inhibitor/peptide/ATP mixture before thoroughly mixing the resultant solution. Reactions were incubated at room temperature (22° C.-23° C.) in a final volume of 50 μL per well in 384-well plates. After a 30-minute incubation, the reactions were stopped by adding 25 μL of 150 mM ethylenediaminetetraacetic acid in 100 mM HEPES buffer (pH 7.2) containing 0.015% Brij 35 to each well.
In each reaction, the residual Y-1B substrate and the phospho-peptide product generated were separated using the EZ Reader II instrument. Electrophoretic separation of molecules of product from molecules of substrate was achieved using downstream and upstream voltages of −500 and −2600 V, respectively, at an operating pressure of −1.3 psi.
The extent (or percent) of conversion of substrate to product was calculated from the corresponding peak heights in the electropherogram using HTS Well Analyzer software, Version 5.2 (PerkinElmer), and the following equation (Equation 1): conversion=[P÷(S+P)]×100 Equation 1% where S and P represent the peak heights of the substrate and product, respectively. After any baseline signal from blank wells containing no JAK was subtracted from the signal of all test wells, the % conversion data were converted to fractional activity as shown in Equation 2, where vi and vo are the % conversion in the presence and absence of test compound, respectively.

Row | SMILES | Ki [1] | IC50 ([2]; Homo sapiens, BEAS-2B) | Ki ([3]; Biochem JAK2 Ki) | IC50 [2] | Ki ([3]; read-out: Biochem JAK2 Ki)
1 | Cn1cc(NC(=O)c2cnn3cccnc23)c(-c2cc(Oc3ccccn3)ccc2OC(F)F)n1 [Example 175, N-[3-[2-(difluoromethoxy)-5-(2-pyridyloxy)phenyl]-1-methyl-pyrazol-4-yl]pyrazolo[1,5-a]pyrimidine-3-carboxamide] | 1.1 nM | 68 nM | 0.57 nM |  | 
2 | CN1CC(O)(c2cccc(Oc3ccc(OC(F)F)c(-c4nn(CCO)cc4NC(=O)c4cnn5cccnc45)c3)c2)C1 [Example 97, N-[3-[2-(difluoromethoxy)-5[3-(3-hydroxy-1-methyl-azetidin-3-yl)phenoxy]phenyl]-1-(2-hydroxyethyl)pyrazol-4-yl]pyrazolo[1,5-a]pyrimidine-3-carboxamide] | 0.85 nM | 300 nM | 0.6 nM |  | 
3 | Cn1cc(NC(=O)c2cnn3cccnc23)c(-c2cc(Oc3cccc(C4(O)CNC4)c3)ccc2OC(F)F)n1 [Example 53] | 0.32 nM | 210 nM | 0.27 nM |  | 
4 | Cn1cc(NC(=O)c2cnn3cccnc23)c(-c2cc(Oc3cnn(C4CCNCC4O)c3)ccc2OC(F)F)n1 (stereo not drawn) [Example 183, N-[3-[2-(difluoromethoxy)-5-[1-(3-hydroxy-4-piperidyl)pyrazol-4-yl]oxy-phenyl]-1-methyl-pyrazol-4-yl]pyrazolo[1,5-a]pyrimidine-3-carboxamide] | 0.41 nM |  | 0.22 nM | 150 nM | 
5 | CN1CCc2cc(Oc3ccc(OC(F)F)c(-c4nn(C)cc4NC(=O)c4cnn5cccnc45)c3)ccc2C1 [Example 64, N-[3-[2-(difluoromethoxy)-5-[(2-methyl-3,4-dihydro-1H-isoquinolin-6-yl)oxy]phenyl]-1-methyl-pyrazol-4-yl]pyrazolo[1,5-a]pyrimidine-3-carboxamide] | 1.7 nM | 59 nM | 0.57 nM |  | 
6 | Cn1cc(NC(=O)c2cnn3cccnc23)c(-c2cc(Oc3ccc4c(c3)CN(CCO)CC4)ccc2OC(F)F)n1 [Example 76, N-[3-[2-(difluoromethoxy)-5-[[2-(2-hydroxyethyl)-3,4-dihydro-1H-isoquinolin-7-yl]oxy]phenyl]-1-methyl-pyrazol-4-yl]pyrazolo[1,5-a]pyrimidine-3-carboxamide] | 0.4 nM | 12 nM | 0.27 nM |  | 
7 | O=C(Nc1c[nH]nc1-c1cc(Oc2cccc(C3(O)CNC3)c2)ccc1OC(F)F)c1cnn2cccnc12 [Example 137, N-[3-[2-(difluoromethoxy)-5-[3-(3-hydroxyazetidin-3-yl)phenoxy]phenyl]-1H-pyrazol-4-yl]pyrazolo[1,5-a]pyrimidine-3-carboxamide;2,2,2-trifluoroacetic acid] | 0.82 nM |  |  | 1000 nM | 0.51 nM
8 | Cn1cc(NC(=O)c2cnn3cccnc23)c(-c2cc(Oc3ccc(CN4CCOCC4)cc3)ccc2OC(F)F)n1 [Example 61, N-[3-[2-(difluoromethoxy)-5-[4-(morpholinomethyl)phenoxy]phenyl]-1-methyl-pyrazol-4-yl]pyrazolo[1,5-a]pyrimidine-3-carboxamide] | 5.1 nM | 130 nM | 2.9 nM |  | 
9 | Cn1cc(NC(=O)c2cnn3cccnc23)c(-c2cc(Oc3ccc(CC(=O)N4CCOCC4)cc3)ccc2OC(F)F)n1 [Example 156, N-[3-[2-(difluoromethoxy)-5-[4-(2-morpholino-2-oxo-ethyl)phenoxy]phenyl]-1-methyl-pyrazol-4-yl]pyrazolo[1,5-a]pyrimidine-3-carboxamide] | 0.27 nM | 23 nM | 0.12 nM |  | 
10 | CN(Cc1cccc(Oc2ccc(OC(F)F)c(-c3nn(C)cc3NC(=O)c3cnn4cccnc34)c2)c1)CC(C)(C)C#N [Example 21, N-[3-[5-[3-[[(2-cyano-2-methyl-propyl)-methyl-amino]methyl]phenoxy]-2-(difluoromethoxy)phenyl]-1-methyl-pyrazol-4-yl]pyrazolo[1,5-a]pyrimidine-3-carboxamide] | 1.8 nM | 110 nM | 1.3 nM |  | 
